ChEMBL document CHEMBL5149963, “Xanthenes in Medicinal Chemistry - Synthetic strategies and biological activities” (Eur J Med Chem, 2021)
In brackets after ≈: the same amount, converted by molar mass.

Assays:
[1] = Antioxidant activity assessed as DPPH radical scavenging activity at 50 to 250 microg/ml incubated for 20 mins relative to control; type: functional; details: dose 50-250 µg/ml
[2] = Antioxidant activity assessed as ABTS radical scavenging activity at 50 to 250 microg/ml incubated for 7 mins relative to control; type: functional; details: dose 50-250 µg/ml
[3] = system: NB-4; test: Antiproliferative activity against human NB-4 cells; type: functional, cell-based
[4] = system: HepG2; test: Antiproliferative activity against human HepG2 cells assessed as reduction in cell viability measured after 48 hrs by trypan blue staining method; type: functional, cell-based; details: HepG2, 48 h
[5] = system: SW480; test: Antiproliferative activity against human SW480 cells assessed as reduction in cell viability measured after 48 hrs by trypan blue staining method; type: functional, cell-based; details: SW480, 48 h
[6] = system: Bel-7402; test: Cytotoxicity against human Bel-7402 cells incubated for 48 hrs by MTT assay; type: functional, cell-based; details: Bel-7402, 48 h
[7] = system: HeLa; test: Cytotoxicity against human HeLa cells incubated for 48 hrs by MTT assay; type: functional, cell-based
[8] = system: MG-63; test: Cytotoxicity against human MG-63 cells incubated for 48 hrs by MTT assay; type: functional, cell-based; details: MG-63, 48 h
[9] = system: SK-BR-3; test: Cytotoxicity against human SK-BR-3 cells incubated for 48 hrs by MTT assay; type: functional, cell-based; details: SK-BR-3, 48 h
[10] = Antioxidant activity assessed as DPPH radical scavenging activity relative to control; type: functional; design: concentration or dose not given beside the values
[11] = system: Bel-7402; test: Cytotoxicity against human Bel-7402 cells assessed as reduction in cell viability measured after 48 hrs by MTT assay; type: functional, cell-based; details: Bel-7402, 48 h
[12] = system: HeLa; test: Cytotoxicity against human HeLa cells assessed as reduction in cell viability measured after 48 hrs by MTT assay; type: functional, cell-based
[13] = system: A549; test: Cytotoxicity against human A549 cells assessed as reduction in cell viability measured after 48 hrs by MTT assay; type: functional, cell-based; details: A549, 48 h
[14] = system: MG-63; test: Cytotoxicity against human MG-63 cells assessed as reduction in cell viability measured after 48 hrs by MTT assay; type: functional, cell-based; details: MG-63, 48 h
[15] = Activation of AMPK in rat L6 cells assessed as increase in AMPK phosphorylation; type: cell-based
[16] = system: Bacillus subtilis; test: Antibacterial activity against Bacillus subtilis ATCC 23857 by disc diffusion assay; type: functional
[17] = system: Vaccinia virus; test: In vivo antiviral activity against Vaccinia virus infected in mouse assessed as reduction in virus severity of virus induced tail lesion at 250 mg/kg, po measured after 24 to 48 hrs relative to control; type: functional, Orthopoxvirus vaccinia; design: scale not given: the % may be the effect or the level left; details: time 24-48 hrs
[18] = molecular target: Glucocorticoid receptor (Homo sapiens) (UniProt P04150); test: Binding affinity to human GR assessed as inhibition of enzyme substrate complex formation
[19] = molecular target: Beta-secretase 1 (Homo sapiens, UniProt P56817); test: Inhibition of BACE1 (unknown origin)
[20] = system: Trypanosoma brucei; test: Antiprotozoal activity against Trypanosoma brucei; type: functional; details: read-out: ED50 (the source's name)
[21] = system: Trypanosoma cruzi; test: Antiprotozoal activity against Trypanosoma cruzi; type: functional; details: read-out: ED50 (the source's name)
[22] = system: Leishmania donovani; test: Antiprotozoal activity against Leishmania donovani; type: functional; details: read-out: ED50 (the source's name)
[23] = system: MCF7; test: Cytotoxicity against human MCF7 cells assessed as reduction in cell viability by MTT assay; type: functional, cell-based
[24] = system: MDA-MB-231; test: Cytotoxicity against human MDA-MB-231 cells assessed as reduction in cell viability by MTT assay; type: functional, cell-based
[25] = system: Plasmodium falciparum; test: Antimalarial activity against chloroquine resistant Plasmodium falciparum K1 in human erythrocytes; type: functional, organism-based; details: K1, Erythrocyte
[26] = system: CHO; test: Cytotoxicity against CHO cells measured after 48 hrs by MTT assay; type: toxicity, cell-based, Cricetulus griseus; details: chinese hamster
[27] = system: Plasmodium falciparum; test: Antimalarial activity against chloroquine resistant Plasmodium falciparum K14 in human blood assessed as reduction in parasitemia measured after 42 hrs; type: functional, organism-based
[28] = Cytotoxicity against ewing sarcoma cells (unknown origin); type: functional, cell-based; details: Ewing sarcoma cell
[29] = Cytotoxicity against neuroblastoma cells (unknown origin); type: functional, cell-based; details: Neuroblastoma cell
[30] = Cytotoxicity against osteosarcoma cells (unknown origin); type: functional, cell-based; details: Osteosarcoma cell
[31] = Cytotoxicity against rhabdomyosarcoma cells (unknown origin); type: functional, cell-based; details: Rhabdomyosarcoma cell
[32] = Cytotoxicity against normal foreskin fibroblast cells (unknown origin); type: toxicity, cell-based
[33] = Cytotoxicity against normal lung fibroblast cells (unknown origin); type: toxicity, cell-based
[34] = Cytotoxicity against normal primary bone marrow fibroblast cells (unknown origin); type: toxicity, cell-based
[35] = system: unidentified influenza virus; test: Antiviral activity against influenza virus; type: functional, organism-based
[36] = system: Human immunodeficiency virus; test: Antiviral activity against Human immunodeficiency virus; type: functional, organism-based; details: Human immunodeficiency virus 1
[37] = system: Vesicular stomatitis virus; test: Antiviral activity against Vesicular stomatitis virus; type: functional, organism-based

Sequence of Glucocorticoid receptor (Homo sapiens) (P04150 whole entry): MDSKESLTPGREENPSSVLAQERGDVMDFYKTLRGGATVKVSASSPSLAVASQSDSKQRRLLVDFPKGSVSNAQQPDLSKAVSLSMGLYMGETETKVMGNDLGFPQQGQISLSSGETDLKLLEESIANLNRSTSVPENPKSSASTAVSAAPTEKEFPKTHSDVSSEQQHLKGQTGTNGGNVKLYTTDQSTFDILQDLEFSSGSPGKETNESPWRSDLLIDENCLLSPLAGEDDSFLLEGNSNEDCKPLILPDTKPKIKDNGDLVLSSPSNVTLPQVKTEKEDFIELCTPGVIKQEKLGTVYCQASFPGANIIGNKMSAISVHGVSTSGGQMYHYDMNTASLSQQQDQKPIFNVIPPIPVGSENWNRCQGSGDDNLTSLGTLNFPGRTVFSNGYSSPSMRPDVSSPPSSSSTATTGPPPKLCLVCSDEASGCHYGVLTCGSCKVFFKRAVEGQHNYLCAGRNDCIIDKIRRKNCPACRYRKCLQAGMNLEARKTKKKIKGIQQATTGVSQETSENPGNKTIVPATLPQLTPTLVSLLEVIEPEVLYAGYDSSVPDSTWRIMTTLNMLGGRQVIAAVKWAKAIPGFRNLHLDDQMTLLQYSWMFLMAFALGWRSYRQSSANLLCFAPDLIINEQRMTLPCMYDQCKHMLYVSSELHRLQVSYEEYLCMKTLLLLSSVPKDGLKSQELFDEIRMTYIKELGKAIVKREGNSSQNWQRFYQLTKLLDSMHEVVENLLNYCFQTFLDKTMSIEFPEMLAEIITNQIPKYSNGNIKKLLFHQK
Sequence of Beta-secretase 1 (P56817 whole entry): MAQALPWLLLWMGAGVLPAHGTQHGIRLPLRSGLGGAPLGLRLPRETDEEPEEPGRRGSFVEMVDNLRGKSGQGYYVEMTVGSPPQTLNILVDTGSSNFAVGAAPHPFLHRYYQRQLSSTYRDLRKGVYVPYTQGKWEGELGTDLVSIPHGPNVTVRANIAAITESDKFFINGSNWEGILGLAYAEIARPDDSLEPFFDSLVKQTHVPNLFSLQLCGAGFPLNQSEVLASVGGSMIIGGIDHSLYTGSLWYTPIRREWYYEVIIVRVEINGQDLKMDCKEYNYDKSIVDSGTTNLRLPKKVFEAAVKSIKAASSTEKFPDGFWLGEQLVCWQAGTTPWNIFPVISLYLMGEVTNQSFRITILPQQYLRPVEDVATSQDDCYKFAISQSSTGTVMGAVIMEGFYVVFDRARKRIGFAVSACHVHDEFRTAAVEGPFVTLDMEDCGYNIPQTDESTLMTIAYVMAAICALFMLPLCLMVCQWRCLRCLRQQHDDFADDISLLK

Oc1ccc(C2c3c(ccc4ccccc34)Oc3ccc4ccccc4c32)cc1
Activity [1]: 53.1% | Activity [2]: 73.2%

CNC(=O)c1ccc2c3c(ccc2c1)Oc1ccc2cc(C(=O)NC)ccc2c1C3c1ccc(F)cc1
IC50 [3]: 0.52 µM

COC(=O)c1cc2ccc(OC)c3c2c(c1C(=O)OC)-c1cc(OC)c(OC)cc1O3
IC50 [4]: > 100 µM | IC50 [5]: > 100 µM

COC(=O)c1cc2ccc(OC(C)=O)c3c2c(c1C(=O)OC)-c1cc(OC(C)=O)c(OC(C)=O)cc1O3
IC50 [4]: 28.6 µM | IC50 [5]: 25.5 µM

COC12C(=O)C=Cc3cc(Br)cc(c31)Oc1ccc3cc(Br)ccc3c12 (centres undefined)
IC50 [6]: 42.3 µM | IC50 [7]: 28.1 µM | IC50 [8]: 39.2 µM | IC50 [9]: 14.3 µM

O=C(OCCc1ccccc1)c1cc2ccc(O)c3c2c(c1C(=O)OCCc1ccccc1)-c1cc(O)c(O)cc1O3
IC50 [4]: 4.76 µM | IC50 [5]: 2.57 µM | Activity [10]: 3.6%

CC(=O)Oc1cc2c(cc1OC(C)=O)-c1c(C(=O)OCCc3ccccc3)c(C(=O)OCCc3ccccc3)cc3ccc(OC(C)=O)c(c13)O2
IC50 [4]: 26.7 µM | IC50 [5]: 3.21 µM

COc1ccc(C2c3c(ccc4ccccc34)Oc3ccc4ccccc4c32)cc1
Activity [1]: 47.1% | Activity [2]: 67.5%

Cc1cc(C(C)(C)C)c(O)c(C(C)(C)C)c1
Activity [10]: 3.6%

O=C1C(CO)=Cc2cccc3c2C1(O)c1c(ccc2ccccc12)O3 (centres undefined)
IC50 [6]: 45.2 µM | IC50 [7]: 68.8 µM | IC50 [8]: 54.8 µM | IC50 [9]: 26.2 µM

Cc1ccc(C2c3cc(-c4ccccc4)ccc3Oc3ccc4ccccc4c32)cc1 (centres undefined)
IC50 [3]: > 50 µM

CCOC12C(=O)C(CO)=Cc3cc(CO)cc(c31)Oc1c(CO)cc3cc(CO)ccc3c12 (centres undefined)
IC50 [6]: 10.1 µM | IC50 [7]: 9.4 µM | IC50 [8]: 25.2 µM | IC50 [9]: 6.2 µM

COC(=O)c1cc2ccc(O)c3c2c(c1C(=O)OC)-c1cc(O)c(O)cc1O3
IC50 [4]: 34.8 µM | IC50 [5]: 32.9 µM

CC(=O)C1C(=O)C[C@@H]2CC[C@@]13c1c(cccc12)Oc1ccc2ccccc2c13 (some centres undefined)
IC50 [11]: 17.1 µM | IC50 [12]: 30.1 µM | IC50 [13]: 54.9 µM | IC50 [14]: 82.5 µM

N#Cc1cccc(NC(=O)NC(NC(=O)C2c3ccccc3Oc3ccccc32)C(Cl)(Cl)Cl)c1 (centres undefined)
EC50 [15]: 1.5 µM

Fc1ccc(C2c3cc(-c4ccccc4)ccc3Oc3ccc4ccccc4c32)cc1 (centres undefined)
IC50 [3]: > 50 µM

CN(C)C(=N)NC(=N)N [METFORMIN]
EC50 [15]: 10000 µM

Cc1ccc(O)c(COCc2cc(C)cc3c2Oc2ccc(C)cc2C3)c1
MIC [16]: 36.1 µg/mL (≈ 100 µM)

O=C(O)/C=C/c1ccc(O)c(O)c1
Activity [10]: 58.6%

Clc1ccc(C2c3cc(-c4ccccc4)ccc3Oc3ccc4ccccc4c32)cc1 (centres undefined)
IC50 [3]: > 50 µM

O=[As][As+](=O)[O-] (centres undefined) [ARSENIC TRIOXIDE]
IC50 [3]: 5.31 µM

COc1cc2c(cc1OC)-c1c(C(=O)OCCc3ccccc3)c(C(=O)OCCc3ccccc3)cc3ccc(OC)c(c13)O2
IC50 [4]: > 100 µM | IC50 [5]: > 100 µM

CN(C)CC(=O)c1ccc2c(c1)Cc1cc(C(=O)CN(C)C)ccc1O2
Activity [17]: 31%

O=C(O)CCc1c2ccc(=O)cc-2oc2cc(O)ccc12
Kis [18]: 27 µM

COC(=O)[C@@]1(O)C[C@@H](OC(=O)c2c(C(=O)O[C@@H]3C[C@](O)(C(=O)OC)C[C@@H]4OC(C)(C)O[C@H]43)cc3ccc(O)c4c3c2-c2cc(O)c(O)cc2O4)[C@@H]2OC(C)(C)O[C@@H]2C1
Activity [10]: 28.1%

CC(C)(C)C(=O)N[C@H]1CC[C@@H]2Oc3ccc(-c4cncc(F)c4)cc3C3(CSC(N)=N3)[C@H]2C1 (some centres undefined)
IC50 [19]: 0.0011 µM

c1ccc(-c2ccc3c(c2)C(c2ccccc2)c2c(ccc4ccccc24)O3)cc1 (centres undefined)
IC50 [3]: > 50 µM

COCc1cc(C)cc2c1Oc1ccc(C)cc1C2
MIC [16]: 25.4 µg/mL (≈ 99.9 µM)

O=C1OC(=O)c2c1cc1ccc(O)c3c1c2-c1cc(O)c(O)cc1O3
IC50 [4]: > 100 µM | IC50 [5]: > 100 µM

Cc1c(C)c2c(c(C)c1O)CCC(C)(CCCC(C)CCCC(C)CCCC(C)C)O2 (racemic)
Activity [10]: 61.1%

CNC(=O)c1ccc2c3c(ccc2c1)Oc1ccc2cc(C(=O)NC)ccc2c1C3c1ccc(Cl)cc1
IC50 [3]: 0.76 µM

COc1ccc(C2c3c(ccc4ccccc34)Oc3ccc4ccccc4c32)cc1OC
Activity [1]: 52.6% | Activity [2]: 70.8%

CN(C)CCCNC(=O)c1cc(C(C)(C)C)cc2c1Oc1c(C(=O)NCCCN(C)C)cc(C(C)(C)C)cc1C2(C)C
EC50 [20]: 0.02 µM | EC50 [21]: 0.48 µM | EC50 [22]: 0.55 µM

Cc1cc2nc3cc(C)c(N)cc3[n+](-c3ccccc3)c2cc1N
Kis [18]: 453 µM

O=C(N[C@H](CO)[C@H](O)c1ccc([N+](=O)[O-])cc1)C(Cl)Cl [CHLORAMPHENICOL]
MIC [16]: 68.7 µg/mL (≈ 213 µM)

CC/C(=C1\c2ccccc2Oc2cc(OCCN3CCCC3)ccc21)c1ccccc1
IC50 [23]: 12.4 µM | IC50 [24]: 25.4 µM

O=C1C=Cc2cccc3c2C1c1c(ccc2ccccc12)O3 (centres undefined)
IC50 [6]: 17.6 µM | IC50 [7]: 18.5 µM | IC50 [8]: 20.1 µM | IC50 [9]: 15.5 µM

CN(C)CCCNCC1c2ccccc2Oc2ccccc21
IC50 [25]: 0.78 µM | IC50 [26]: 331.1 µM

O=C(Nc1cccc([N+](=O)[O-])c1)NC(NC(=O)C1c2ccccc2Oc2ccccc21)C(Cl)(Cl)Cl (centres undefined)
EC50 [15]: 1.5 µM

c1ccc(C2c3c(ccc4ccccc34)Oc3ccc4ccccc4c32)cc1
Activity [1]: 31.1% | Activity [2]: 63.5%

COc1cc(C2c3c(ccc4ccccc34)Oc3ccc4ccccc4c32)ccc1O
Activity [1]: 86.8% | Activity [2]: 83.1%

CCOc1ccc(N2C(=O)C3(c4ccccc4Oc4ccccc43)C23c2ccccc2-c2ccccc23)cc1
IC50 [27]: 5 µM

O=C(O)c1c(Cl)c(Cl)c(Cl)c(Cl)c1-c1c2cc(I)c(=O)c(I)c-2oc2c(I)c(O)c(I)cc12 [ROSE BENGAL SODIUM]
IC50 [28]: 45 µM | IC50 [29]: 73 µM | IC50 [30]: 75 µM | IC50 [31]: 51 µM | IC50 [32]: 73 µM | IC50 [33]: 75 µM | IC50 [34]: 136 µM | IC50 [35]: 0.3 µM | IC50 [36]: 0.05 µM | IC50 [37]: 0.008 µM
